# Data as given in patent US8673890B2, “2,3-dihydro-1H-isoindol-1-imine derivatives useful as thrombin PAR-1 receptor antagonist” (Janssen Pharmaceutica NV, priority 2009, dated 2014).
# “And” between values parts separate entries of the source, which are not always exact repeats. Identical values can stand only once.
# Key:
# [1] = target: T1, thrombin receptor (PAR-1) (Homo sapiens, UniProt P25116); assay: FLIPR-based calcium-flux assay with human smooth muscle cells (Har peptide agonist); type: cell-based; conditions: HSMC; 30 nM Har (PAR1) peptide agonist; 80-min drug incubation; multiple values = individual measurements
# T1 construct: Human aortic smooth muscle cells (HSMC) were purchased from Cascade Biologics; host or cells: human aortic smooth muscle cells (HSMC)
# T1 sequence (P25116 22-425): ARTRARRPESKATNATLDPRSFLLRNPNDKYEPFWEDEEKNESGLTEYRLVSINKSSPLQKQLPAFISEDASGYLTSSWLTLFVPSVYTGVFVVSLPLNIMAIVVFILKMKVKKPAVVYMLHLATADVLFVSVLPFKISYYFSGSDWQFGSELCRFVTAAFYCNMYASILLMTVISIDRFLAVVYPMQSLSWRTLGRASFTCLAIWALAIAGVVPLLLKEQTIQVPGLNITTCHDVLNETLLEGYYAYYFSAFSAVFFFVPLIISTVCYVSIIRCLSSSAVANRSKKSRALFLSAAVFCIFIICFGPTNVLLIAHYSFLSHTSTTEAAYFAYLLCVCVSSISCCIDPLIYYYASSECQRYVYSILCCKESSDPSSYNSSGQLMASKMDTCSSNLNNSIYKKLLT
# Procedure: Human aortic smooth muscle cells (HSMC) were purchased from Cascade Biologics (Portland, Oreg.) and cultured in M-231 containing smooth muscle cell growth supplement and 1× Antibiotic-Antimycotic.
# To determine agonist concentration for compound testing: On the day prior to the assay, 100 μL of cells (2×10^5/mL) were seeded in clear, flat-bottom black-wall, tissue culture treated polystyrene 96-well plates and incubated at 37° C., 5% CO2. On the day of the assay, 50 μL of complete dye loading solution (FLIPR Calcium 3 Kit, Molecular Devices) was added to each well containing 100 μL of culture media. The cells were incubated for 30-45 min at 37° C., in 5% CO2 before initiating the assay on the FLIPR. The agonist effect of PAR1 peptide (S-(p-F-Phe)-Har-L-Har-KY-NH2; Har=homoarginine; referred to herein as “Har” peptide) was tested and the EC50 was determined. The EC60-70 dose was used (30 nM) for compound testing.
# Compound testing: On the day prior to the assay, 90 μL of cells (2.2×10^5/mL) were seeded in clear, flat-bottom black-wall, tissue culture treated polystyrene 96-well plates and incubated at 37° C., 5% CO2. On the day of the assay, the test compounds were prepared at 10× in 3% DMSO Hanks buffer and 10 μL was added to each well (final DMSO concentration of 0.3%). The cells were incubated 20 min at 37° C., 5% CO2. Culture medium containing testing compounds was dumped and the cells were washed four times with DPBS containing 0.1% of BSA and re-fed with 80 μL of growth medium. 70 μL of BD (fluorescent) dye was loaded to the cells and incubated 45 min at 37° C. incubator. The plates were equilibrated to room temperature for 15 min. 4× PAR1 peptide (30 nM final concentration) agonist plate and the cell plate were placed in FLIPR's assay chamber. 50 μL agonist was added to the cells and data was recorded for 5 min. Raw fluorescence data was exported for each well and tabulated versus time within an ASCII file. Data was then imported into Excel® and the peak response over basal level was determined. The percent inhibition for each test compound was calculated by the changes of fluorescent density as a % inhibition of the control Har peptide response to obtain an IC50.
# (§1) Representative compounds of the present invention were tested according to the procedure described in Biological Example 1 above, with results in Table 8 below. In Table 8 below, where multiple values are listed for a particular compound, said numbers represent individual measurements (tests) for said compound.
# [2] = test system: washed platelets; assay: Har peptide-induced platelet aggregation in washed platelets; type: cell-based; conditions: Homo sapiens
# Procedure: (§2) Platelet aggregation studies were performed according to the method of Bednar et al. (Bednar, B., Condra, C., Gould, R. J., and Connolly, T. M., Thromb. Res., 77:453-463 (1995)). Platelet-rich plasma (PRP) concentrates prepared from healthy volunteers who were aspirin free for at least 7 days by venipuncture using ACD-A as anticoagulant was purchased from Biological Specialties, Inc. (Colmar, Pa.). PRP was centrifuged at 730 g for 15 min. The platelet pellet was washed twice in CGS buffer (13 mM sodium citrate, 30 mM glucose, 120 mM NaCl, pH 6.5) containing 1 U/ml apyrase (grade V, Sigma-Aldrich, St. Louis, Mo.), 1 mM EGTA, and re-suspended in Tyrode's buffer (140 mM NaCl, 2.7 mM KCl, 12 mM NaHCO3, 0.76 mM Na2HPO4, 5.5 mM dextrose, 5.0 mM HEPES, 0.2% BSA, pH 7.4). The platelets were diluted to 3×10^8 platelets/ml and kept >45 min at 37° C. before use. 105 μl of washed platelets, 2 mM CaCl2 and […] of fibrinogen (for PAR-1 peptide-induced platelet aggregation only) were added to a 96-well microliter plate. Platelet aggregation was initiated by the addition of serial concentrations of Har peptide or thrombin (Alpha; American Diagnostica, Cat. # 470HT, 2,500 NIH Units/mg). Buffer was added to one set of control wells. The assay plate was stirred constantly and intermittently placed in a microplate reader (Softmax, Molecular Devices, Menlo Park, Calif.) to read optical density (650 nm) at 0 and 5 minutes after the addition of the compound solutions. Aggregation was calculated as the decrease in optical density between the time 0- and 5-min measurements and expressed as % of aggregation.
# (§3) For the inhibition assay, platelet aggregation measurements were conducted as described, with the additional step of test compound addition. Compounds were prepared in 100% DMSO and stored. On the day of the experiment, the compounds were diluted in the Tyrode's buffer containing 3% of DMSO as a 10× working solution. 15 μl of test compound solutions were added to 105 μl of platelets 5 min prior to CaCl2 and fibrinogen additions. Platelet aggregation was initiated by the addition of agonist shown to achieve 60-70% aggregation. Antagonist potency was estimated as a % inhibition of the control Har peptide or thrombin response to obtain an IC50.
# as §1, with “2” for “1”, “9” for “8”, “9” for “8 below,”
# [3] = test system: washed platelets; assay: Thrombin-induced platelet aggregation in washed platelets; type: cell-based, human; conditions: for IC50: Homo sapiens, Platelet
# Procedure: as §2, §3
# as §1, with “2” for “1”, “9” for “8”, “9” for “8 below,”
# [4] = test system: platelets in platelet-rich plasma; assay: Har peptide-induced platelet aggregation in platelet-rich plasma; type: cell-based, human; conditions: for IC50: multiple values = individual measurements; for inhibition at 10 µM: 10 μM compound
# Procedure: (§4) The procedure for this assay is similar to that described in Biological Example 2, above. Briefly, platelet aggregation studies were performed according to the method of Bednar et al. (Bednar, B., Condra, C., Gould, R. J., and Connolly, T. M., Thromb. Res., 77:453-463 (1995)). Platelet-rich plasma (PRP) concentrates prepared from healthy volunteers who were aspirin free for at least 7 days by venipuncture using EDTA as anticoagulant was purchased from Biological Specialties, Inc. (Colmar, Pa.). PPP (platelet-poor-plasma) was obtained by centrifugation of PRP at Max (3,000 rpms) for 15 min at room temperature. PRP was diluted to yield platelet count of 300×10^3 platelets/μL with PPP. For thrombin induced platelet aggregation: 118 μL of 500 mM GPRP-NH2 was added to 12 mL of 300×10^3 platelets before using (to clean the fibrinogen in the plasma.) GPRP was added just before the experiment. 15 μL of test compound solutions were added to 120 μL of platelets 5 min prior the agonist additions. Platelet aggregation was initiated by the addition of agonist shown to achieve 60-70% aggregation. Antagonist potency was estimated as a % inhibition of the control Har peptide or thrombin response to obtain an IC50.
# (§5) Where multiple values are listed for a particular compound, said numbers represent individual measurements (tests) for said compound.
# [5] = test system: platelets in platelet-rich plasma; assay: Thrombin-induced platelet aggregation in platelet-rich plasma; type: cell-based, human; conditions: for IC50: multiple values = individual measurements; for inhibition at 10 µM: 10 μM compound
# Procedure: as §4, §5
Compound,IC50 [1],IC50 [2],IC50 [3],"IC50 ([4]; Homo sapiens, Platelet)",IC50 [5],Washed platelet aggregation IC50 (μM) Thrombin [3],"IC50 ([5]; Homo sapiens, Platelet)",IC50 [4],inhibition at 10 µM ([5]; Homo sapiens),inhibition at 10 µM ([4]; Homo sapiens)
CC(C)(C)c1cc(C(=O)CN2Cc3cc4c(cc3C2=N)OCc2ncccc2CO4)cc(C(C)(C)C)c1O [Compound 49],0.019 µM and 0.059 µM and 0.023 µM and 0.038 µM,0.068 µM,0.107 µM,390 nM,690 nM and 2430 nM,,,,,
Cc1sc(C)c2c1COc1cc3c(cc1OC2)C(=N)N(CC(=O)c1cc(C(C)(C)C)c(O)c(C(C)(C)C)c1)C3 [Compound 74],0.15 µM and 0.16 µM,0.779 µM,,> 10000 nM,> 10000 nM,variable,> 10000 nM,,,
COc1c(N2CCOCC2)cc(C(=O)CN2Cc3cc4c(cc3C2=N)OCc2cc3c(cc2CO4)OCO3)cc1C(C)(C)C [Compound 59],0.371 µM,1.25 µM,2.11 µM,6120 nM,,,,,,
COc1c(C(C)(C)C)cc(C(=O)CN2Cc3cc4c(cc3C2=N)OCc2ncccc2CO4)cc1C(C)(C)C [Compound 75],0.39 µM and 0.46 µM,0.183 µM,> 10 µM,3040 nM,2190 nM and > 10000 nM,,,,,
COc1c(N2CCOCC2)cc(C(=O)CN2Cc3cc4c(cc3C2=N)OCc2ncccc2CO4)cc1C(C)(C)C [Compound 52],0.025 µM,0.172 µM,0.282 µM,,,,,,,
COc1c(N2CCOCC2)cc(C(=O)CN2Cc3cc4c(cc3C2=N)OCc2nccnc2CO4)cc1C(C)(C)C [Compound 58],0.103 µM,0.214 µM,0.304 µM,749 nM,,,803 nM,,,
CC(C)(C)c1cc(C(=O)CN2Cc3cc4c(cc3C2=N)OCc2ccccc2CO4)cc(C(C)(C)C)c1O [Compound 47],0.04 µM and 0.088 µM,,,2270 nM,2750 nM,,2540 nM,2250 nM,,
CC(C)(C)c1cc(C(=O)CN2Cc3cc4c(cc3C2=N)OCc2cc(C(=O)O)ccc2CO4)cc(C(C)(C)C)c1O [Compound 72],0.25 µM and 0.14 µM,,,> 10000 nM,,,> 10000 nM,> 10000 nM,,
COC(=O)c1ccc2c(c1)COc1cc3c(cc1OC2)CN(CC(=O)c1cc(N2CCOCC2)c(OC)c(C(C)(C)C)c1)C3=N [Compound 73],0.047 µM and 0.057 µM,0.446 µM,0.813 µM,6710 nM,2430 nM and > 10000 nM,,,,,

# Further lines, with some results ahead:
IC50 [1],IC50 [2],IC50 [3],"IC50 ([4]; Homo sapiens, Platelet)",IC50 [5],Washed platelet aggregation IC50 (μM) Thrombin [3],"IC50 ([5]; Homo sapiens, Platelet)",IC50 [4],Compound,inhibition at 10 µM ([5]; Homo sapiens),inhibition at 10 µM ([4]; Homo sapiens)
0.092 µM and 0.22 µM,,,> 10000 nM,,,,,Cc1cc2c(cc1C)COc1cc3c(cc1OC2)CN(CC(=O)c1cc(C(C)(C)C)c(O)c(C(C)(C)C)c1)C3=N [Compound 99],23%,
0.58 µM,0.309 µM,> 10 µM,2060 nM,> 10000 nM,,> 10000 nM,,COc1c(C(C)(C)C)cc(C(=O)CN2Cc3cc4c(cc3C2=N)OCc2cccnc2CO4)cc1C(C)(C)C [Compound 76],,
0.05 µM and 0.1 µM,,,1300 nM,,,2190 nM,,COc1c(N2CCOCC2)cc(C(=O)CN2Cc3cc4c(cc3C2=N)OC/C=C\CO4)cc1C(C)(C)C [Compound 97],,
0.68 µM and 0.2 µM and 0.57 µM,,,2560 nM,,,> 10000 nM,4450 nM,"COc1c(N2CCOCC2)cc(C(=O)CN2Cc3cc4c(cc3C2=N)OCC(F)(F)C(F)(F)CO4)cc1C(C)(C)C [Compound 90, 1-(3-tert-butyl-4-methoxy-5-morpholinophenyl)-2-(3,3,4,4-tetrafluoro-8-imino-4,5-dihydro-2H-[1,4]-dioxocino[2,3-f]isoindol-9(3H,8H,10H)-yl)ethanone]",30%,
0.046 µM and 0.074 µM,,,630 nM,1920 nM and 1550 nM,,1230 nM,490 nM and 830 nM,CC(C)(C)c1cc(C(=O)CN2Cc3cc4c(cc3C2=N)OCc2nccnc2CO4)cc(C(C)(C)C)c1O [Compound 77],,
0.53 µM and 0.36 µM,,,,> 10000 nM,,> 10000 nM,,COc1c(N2CCOCC2)cc(C(=O)CN2Cc3cc4c(cc3C2=N)OCC(F)(F)CO4)cc1C(C)(C)C [Compound 92],,24%
0.022 µM and 0.027 µM,,,1610 nM,,,1920 nM,,"CC(C)(C)c1cc(C(=O)CN2Cc3cc4c(cc3C2=N)OC/C=C\CO4)cc(C(C)(C)C)c1O [Compound 100, (Z)-1-(3,5-di-tert-butyl-4-hydroxyphenyl)-2-(8-imino-2H-[1,4]-dioxocino[2,3-f]isoindol-9(5H,8H,10H)-yl)ethanone]",,
0.27 µM and > 1 µM,,,> 10000 nM,,,> 10000 nM,,COc1c(N2CCOCC2)cc(C(=O)CN2Cc3cc4c(cc3C2=N)OCc2cc(C)c(C)cc2CO4)cc1C(C)(C)C [Compound 98],,
0.24 µM and 0.35 µM,,,,> 10000 nM,,> 10000 nM,840 nM and 1750 nM,CC(C)(C)c1cc(C(=O)CN2Cc3cc4c(cc3C2=N)OCc2cccnc2CO4)ccc1O [Compound 83],,
0.39 µM and 0.07 µM and 0.19 µM,,,12900 nM,> 10000 nM,,> 10000 nM,,CC(C)(C)c1cc(C(=O)CN2Cc3cc4c(cc3C2=N)OCC(F)(F)C(F)(F)CO4)cc(C(C)(C)C)c1O [Compound 91],,26%
